{"source": "patent US10071133B2", "about": "“Method for destroying exosomes, kit for destroying exosomes, and method for isolating exosomes derived from normal cells” (priority 2015, dated 2018)", "key": {"[1]": {"system": "exosome fraction A prepared from the cell line MM231-luc-D3H2LN derived from human breast cancer cells", "assay": "Destruction of exosomes in PBS, number of exosomes by nanoparticle analyzer (NanoSight LM10)", "assay_type": "biochemical", "conditions": "100 μM peptide, 1.36×10^10 particles/mL exosomes in PBS, 25° C., 24 hours; without peptide 1.36×10^10", "description": "Storage samples were lightly suspended with a vortex mixer (vibration mixer) before use."}, "[2]": {"system": "exosome fraction B derived from human breast cancer cells versus exosome fraction derived from human mammary gland cells (MCF-10A, normal cells)", "assay": "Selectivity: miR-16 ratio, breast cancer exosomes versus mammary gland normal cell exosomes (Formula 1)", "assay_type": "biochemical", "experimental": "(§1) A cell suspension of cell line MDA-MB-231-luc-D3H2LN derived from human breast cancer (=MM231-luc-D3H2LN, provided by the National Cancer Center Research Institute) was seeded in a dish containing RPMI 1640 medium (manufactured by Thermo Fisher Scientific Inc.) containing 10% fetal bovine serum. Subsequently, the cell line was grown at 37° C. under the condition that CO2 concentration was set to 5 volume % using a CO2 incubator, and then the medium was replaced with Advanced RPMI 1640 medium (manufactured by Thermo Fisher Scientific Inc.), followed by culturing for 48 hours, and therefore the culture solution containing exosomes was obtained. This culture solution was centrifuged at 2,000 G for 10 minutes to remove the precipitate, followed by centrifugation at 110,000 G for 70 minutes to precipitate the exosomes, and therefore an exosome fraction B was recovered. The recovered exosome fraction B was suspended in a phosphate buffered saline (PBS) and then stored at 4° C. Storage samples were lightly suspended with a vortex mixer (vibration mixer) before use.\nA cell suspension of cell line MCF 10A derived from human mammary epithelial cells (provided by the National Cancer Center Research Institute) was seeded in a dish containing Mammary Epithelium Cell Basal Medium (manufactured by Lonza). Subsequently, the cell line was grown at 37° C. under the condition that CO2 concentration was set to 5 volume % using a CO2 incubator, and then the medium was replaced with a fresh medium, followed by culturing for 48 hours, and the culture solution containing exosomes was obtained. This culture solution was centrifuged at 2,000 G for 10 minutes to remove the precipitate, followed by centrifugation at 110,000 G for 70 minutes to precipitate the exosomes, and an exosome fraction was recovered. The recovered exosome fraction was suspended in a phosphate buffered saline (PBS) and then stored at 4° C. Storage samples were lightly suspended with a vortex mixer (vibration mixer) before use.\nMicroRNA (miR-21 or miR-16) in the reaction solution was subjected to reverse transcription PCR using reverse transcription primers (manufactured by Thermo Fisher Scientific Inc., Taqman microRNA Assays, RT primers, and hsa-mir-21 or hsa-mir-16) and a reverse transcriptase (manufactured by Thermo Fisher Scientific Inc., Taqman microRNA RT kit).\nThe reverse transcription PCR solution obtained by the above described method was processed and by comparing the number of cycles on a calibration curve of microRNA using Taqman Assay primer (manufactured by Thermo Fisher Scientific Inc., Taqman microRNA Assays, Taqman Assay primer, and hsa-mir-21 or hsa-mir-16) and Real-Time PCR Master Mixes (manufactured by Thermo Fisher Scientific Inc., TaqMan Universal PCR Master Mix II, w/UNG) with StepOnePlus Real-Time PCR System, MiR-21 or miR-16 was quantified. The calibration curve of microRNA was created using synthetic miR-21 (manufactured by Sigma-Aldrich Co. LLC.) or synthetic miR-16 (manufactured by Sigma-Aldrich Co. LLC.).\n10 μL of the exosome fraction was prepared such that PBS contains 1×10^11 particles/mL of the exosome fraction B derived from human breast cancer cells, various antimicrobial peptides shown in the following Table 4 adjusted to 100 μM, and 0.4 U/μL of RNase inhibitor (manufactured by Toyobo Co., Ltd.), followed by incubation by being left to stand at 37° C. for 24 hours.\nThereafter, the eluted MicroRNA (miR-16) was purified and recovered from the incubated solution by the same method as the above described method for extraction from the incubated solution of Examples 10 and 11 above and Comparative Examples 6 and 7 above. […]"}, "[3]": {"system": "exosomes derived from human breast cancer cells (MM231-luc-D3H2LN) in human peripheral blood sample", "conditions": "[…]10^10 particles/mL exosomes, 100 μM magainin 2 or 8% phenol, 25° C., 24 hours", "experimental": "The exosome fraction A prepared from the cell line MM231-luc-D3H2LN derived from human breast cancer cells was added to a peripheral blood sample collected from a healthy person with no cancer (hereinafter will be also referred to as human peripheral blood sample) so as to become an exosome concentration of an actual cancer patient, and thereby an artificial sample of a human peripheral blood of the cancer patient was produced. The human peripheral blood sample was obtained after procurement of the patient informed consent according to the Declaration of Helsinki, similarly to the method described in Japanese Unexamined patent publication No. 2013-198483, for example. Blood was drawn using a blood collection tube containing an anticoagulant.\nUsing a part of the incubated solution, the exosomes were purified with Exo-Flow32 CD9 IP Kit (manufactured by SBI), and then the number of exosomes in the solution was measured using the nanoparticle analyzer (NanoSight LM10; manufactured by NanoSight, Ltd.). […] In addition, a part of the incubated solution was subjected to the serum component protein electrophoresis."}, "[4]": {"system": "exosome fraction B derived from human breast cancer cells versus exosome fraction derived from normal human serum", "assay": "Selectivity: miR-16 ratio, breast cancer exosomes versus normal human serum exosomes (Formula 2)", "assay_type": "biochemical", "conditions": "Formula 2, cancer/normal human serum exosomes; magainin 2 100 μM, 37° C., 24 hours", "experimental": "as §1\nStorage samples were lightly suspended with a vortex mixer (vibration mixer) before use. […]"}}}
{"substance": "Magainin 2", "values": [{"measurement": "number of exosomes in the solution", "setting": "[1]", "value": "1.89×10^9 particles/mL"}, {"measurement": "mir-16 ratio", "setting": "[2]; Formula 1, cancer/normal (MCF-10A), 100 μM peptide, 37° C., 24 hours", "value": 26}, {"measurement": "Selectivity", "setting": "[2]; from miR-16 ratio versus Comparative Example 8, breast cancer vs MCF-10A exosomes", "value": "B (evaluated as “B” in a case where the calculated miR-16 value was higher than the miR-16 ratio of Comparative Example 8)"}, {"measurement": "exosome amount compared to Comparative Example 3 (no additive)", "setting": "[3]", "value": "decreased"}, {"measurement": "mir-16 ratio", "setting": "[4]", "value": 56.6}]}
